The results in this text go back to EP1276722B1, “NAPHTHAMIDINE UROKINASE INHIBITORS” (ABBOTT LABORATORIES, priority 2000, dated 2001).

For one experiment, the target named is T1, urokinase enzyme Abbokinase (Homo sapiens, UniProt P00749).
T1 construct: purchased Abbott Laboratories, Abbott Park, IL
The experiment can be described thus: Inhibition of urokinase on chromogenic substrate S-2444. In kind it is biochemical.
Conditions: not given
As a reminder, the Ki is the dissociation constant of the complex between target and ligand, obtained from inhibition or displacement. `COC/C=C/c1cc(C2CC2c2ccc3c(c2)C(C(C)C)N(C)CC3)cc2ccc(C(=N)N)cc12` (stereo not shown) [Example 5, 6-(2-(1-isopropyl-2-methyl-1,2,3,4-tetrahydro-7-isoquinolinyl)cyclopropyl)-8-((1E)-3-methoxy-1-propenyl)-2-naphthalenecarboximidamide] registered a Ki of 21 nM.

Staying with this experiment, now noted: read-out: Ki.
Take `CC(C)C1c2cc(C3CC3c3ccc4cc(C(=N)N)ccc4c3)ccc2CCN1CC(F)(F)F` (stereo not shown) [Example 33, 6-(2-(1-isopropyl-2-(2,2,2-trifluoroethyl)-1,2,3,4-tetrahydro-7-isoquinolinyl)cyclopropyl)-2-naphthalenecarboximidamide]: the Ki was determined as 1440 nM.
On the same count and under the same terms, the value for `CCC1CNCc2ccc(C3CC3c3ccc4cc(C(=N)N)ccc4c3)cc21` (stereo not shown) [Example 48, 6-(2-(4-ethyl-1,2,3,4-tetrahydro-6-isoquinolinyl)cyclopropyl)-2-naphthalenecarboximidamide] was 29 nM.
The same measure, in the same setting: to `CC(C)C1c2cc(C3CC3c3ccc4cc(C(=N)N)ccc4c3)ccc2CCN1CCO` (stereo not shown) [Example 26, 6-(2-(2-(2-hydroxyethyl)-1-isopropyl-1,2,3,4-tetrahydro-7-isoquinolinyl)cyclopropyl)-2-naphthalenecarboximidamide] belongs 48 nM; to `CCC1CN(Cc2ccccc2)Cc2ccc(C3CC3c3ccc4cc(C(=N)N)ccc4c3)cc21` (stereo not shown) [Example 49, 6-(2-(2-benzyl-4-ethyl-1,2,3,4-tetrahydro-6-isoquinolinyl)cyclopropyl)-2-naphthalenecarboximidamide], 278 nM.
Consider `CCC1CN=C(C(C)C)c2ccc(C=Cc3ccc4cc(C(=N)N)ccc4c3)cc21` (stereo not shown) [Example 55, 6-(2-(4-ethyl-1-isopropyl-3,4-dihydro-6-isoquinolinyl)ethenyl)-2-naphthalenecarboximidamide], for which the Ki came out at 255 nM.
The same measure, in the same setting: to `CC(C)C1c2cc(C3CC3c3cc(-c4ccoc4)c4cc(C(=N)N)ccc4c3)ccc2CCN1C` (stereo not shown) [Example 3, 8-(3-furyl)-6-(2-(1-isopropyl-2-methyl-1,2,3,4-tetrahydro-7-isoquinolinyl)cyclopropyl)-2-naphthalenecarboximidamide] belongs 25 nM; to `CCC1(CC)CN=C(C(C)C)c2ccc(C3CC3c3ccc4cc(C(=N)N)ccc4c3)cc21` (stereo not shown) [Example 31, 6-(2-(4,4-diethyl-1-isopropyl-3,4-dihydro-6-isoquinolinyl)cyclopropyl)-2-naphthalenecarboximidamide], 350 nM.
Same read-out and setting: to `C=C(C)/C=C/c1cc(C2CC2c2ccc3c(c2)C(C(C)C)N(C)CC3)cc2ccc(C(=N)N)cc12` (stereo not shown) [Example 38, 6-(2-(1-isopropyl-2-methyl-1,2,3,4-tetrahydro-7-isoquinolinyl)cyclopropyl)-8-((1E)-3-methyl-1,3-butadienyl)-2-naphthalenecarboximidamide] belongs 40 nM; to `CCC1CN=C(C(C)C)c2ccc(C3CC3c3ccc4cc(C(=N)N)ccc4c3)cc21` (stereo not shown) [Example 54, 6-(2-(4-ethyl-1-isopropyl-3,4-dihydro-6-isoquinolinyl)cyclopropyl)-2-naphthalenecarboximidamide], 343 nM.
With `CC1c2cc(C3CC3c3ccc4cc(C(=N)N)ccc4c3)ccc2CCN1C` (stereo not shown) [Example 30, 6-(2-(1,2-dimethyl-1,2,3,4-tetrahydro-7-isoquinolinyl)cyclopropyl)-2-naphthalenecarboximidamide], the inhibition constant (Ki) came out at 278 nM.
Consider `C=Cc1cc(C2CC2c2ccc3c(c2)C(C(C)C)N(C)CC3)cc2ccc(C(=N)N)cc12` (stereo not shown) [Example 41, 6-(2-(1-isopropyl-2-methyl-1,2,3,4-tetrahydro-7-isoquinolinyl)cyclopropyl)-8-vinyl-2-naphthalenecarboximidamide], for which the Ki was 14 nM.
As for `N=C(N)c1ccc2cc(C3CC3c3ccc4c(c3)CCNC4)ccc2c1` (stereo not shown) [Example 46, 6-(2-(1,2,3,4-tetrahydro-6-isoquinolinyl)cyclopropyl)-2-naphthalenecarboximidamide], the inhibition constant (Ki) came out at 180 nM.
For the molecule `CC(C)C1c2cc(C3CC3c3ccc4cc(C(=N)N)ccc4c3)ccc2CCN1C(C)C` (stereo not shown) [Example 27, 6-(2-(1,2-diisopropyl-1,2,3,4-tetrahydro-7-isoquinolinyl)cyclopropyl)-2-naphthalenecarboximidamide], the Ki is 130 nM.
Consider `CC(C)C1c2cc(C3CC3c3cc(Br)c4cc(C(=N)N)ccc4c3)ccc2CCN1C` (stereo not shown) [Example 36, 8-bromo-6-(2-(1-isopropyl-2-methyl-1,2,3,4-tetrahydro-7-isoquinolinyl)cyclopropyl)-2-naphthalenecarboximidamide], for which the Ki is 54 nM.
On the same count and under the same terms, the value for `CN1CCc2ccc(C3CC3c3cc(Br)c4cc(C(=N)N)ccc4c3)cc2C1C1CCCCC1` (stereo not shown) [Example 57, 8-bromo-6-(2-(1-cyclohexyl-2-methyl-1,2,3,4-tetrahydro-7-isoquinolinyl)cyclopropyl)-2-naphthalenecarboximidamide] was 25 nM; that for `CC(C)C1=NCCc2ccc(C3CC3c3cc(-c4ccoc4)c4cc(C(=N)N)ccc4c3)cc21` (stereo not shown) [Example 1, 8-(3-furyl)-6-(2-(1-isopropyl-3,4-dihydro-7-isoquinolinyl)cyclopropyl)-2-naphthalenecarboximidamide] was 41 nM.
Turning to `CC(C)/C=C/c1cc(C2CC2c2ccc3c(c2)C(C2CCCCC2)N(C)CC3)cc2ccc(C(=N)N)cc12` (stereo not shown) [Example 59, 6-(2-(1-cyclohexyl-2-methyl-1,2,3,4-tetrahydro-7-isoquinolinyl)cyclopropyl)-8-((1E)-3-methyl-1-butenyl)-2-naphthalenecarboximidamide], the Ki was 10 nM.
Still for that read-out and setting: the value for `COC(=O)N1CCc2ccc(C=Cc3ccc4cc(C(=N)N)ccc4c3)cc2C1C(C)C` (stereo not shown) [Example 17, methyl 7-(2-(6-(amino(imino)methyl)-2-naphthyl)ethenyl)-1-isopropyl-3,4-dihydro-2(1H)-isoquinolinecarboxylate] was 250 nM; that for `N=C(N)c1ccc2cc(C3CC3c3ccc4c(c3)C(C3CCCCC3)=NCC4)ccc2c1` (stereo not shown) [Example 9, 6-(2-(1-cyclohexyl-3,4-dihydro-7-isoquinolinyl)cyclopropyl)-2-naphthalenecarboximidamide] was 50 nM; that for `CC(C)c1nccc2ccc(C3CC3c3ccc4cc(C(=N)N)ccc4c3)cc12` (stereo not shown) [Example 2, 6-(2-(1-isopropyl-7-isoquinolinyl)cyclopropyl)-2-naphthalenecarboximidamide] was 480 nM.
With `CCC1CN(C)Cc2ccc(C3CC3c3ccc4cc(C(=N)N)ccc4c3)cc21` (stereo not shown) [Example 51, 6-(2-(4-ethyl-2-methyl-1,2,3,4-tetrahydro-6-isoquinolinyl)cyclopropyl)-2-naphthalenecarboximidamide], the Ki came to 123 nM.
The same measure, in the same setting: to `CC(C)C1c2cc(C=Cc3ccc4cc(C(=N)N)ccc4c3)ccc2CCN1C` (stereo not shown) [Example 16, 6-(2-(1-isopropyl-2-methyl-1,2,3,4-tetrahydro-7-isoquinolinyl)ethenyl)-2-naphthalenecarboximidamide] belongs 120 nM; to `CCC1(CC)CN(C)C(C(C)C)c2ccc(C3CC3c3ccc4cc(C(=N)N)ccc4c3)cc21` (stereo not shown) [Example 32, 6-(2-(4,4-diethyl-1-isopropyl-2-methyl-1,2,3,4-tetrahydro-6-isoquinolinyl)cyclopropyl)-2-naphthalenecarboximidamide], 350 nM.
Still for that read-out and setting: the value for `CC(C)C1NCCc2ccc(C=Cc3ccc4cc(C(=N)N)ccc4c3)cc21` (stereo not shown) [Example 13, 6-(2-(1-isopropyl-1,2,3,4-tetrahydro-7-isoquinolinyl)ethenyl)-2-naphthalenecarboximidamide] was 260 nM; that for `CC(C)C1NCCc2ccc(C3CC3c3ccc4cc(C(=N)N)ccc4c3)cc21` (stereo not shown) [Example 20, 6-(2-(1-isopropyl-1,2,3,4-tetrahydro-7-isoquinolinyl)cyclopropyl)-2-naphthalenecarboximidamide] was 84 nM.
Same read-out and setting: the value for `CCN1CCc2ccc(C3CC3c3ccc4cc(C(=N)N)ccc4c3)cc2C1C(C)C` (stereo not shown) [Example 24, 6-(2-(2-ethyl-1-isopropyl-1,2,3,4-tetrahydro-7-isoquinolinyl)cyclopropyl)-2-naphthalenecarboximidamide] was 54 nM.
For `CCC1CN(C(C)=O)Cc2ccc(C3CC3c3ccc4cc(C(=N)N)ccc4c3)cc21` (stereo not shown) [Example 52, 6-(2-(2-acetyl-4-ethyl-1,2,3,4-tetrahydro-6-isoquinolinyl)cyclopropyl)-2-naphthalenecarboximidamide], the Ki is 530 nM.
For the molecule `CC(C)C1=NCCc2ccc(C=Cc3cc(Br)c4cc(C(=N)N)ccc4c3)cc21` [Example 22, 8-bromo-6-(2-(1-isopropyl-3,4-dihydro-7-isoquinolinyl)ethenyl)-2-naphthalenecarboximidamide], the Ki was found to be 291 nM.
As to `CC(C)/C=C/c1cc(C2CC2c2ccc3c(c2)C(C(C)C)=NCC3)cc2ccc(C(=N)N)cc12` (stereo not shown) [Example 8, 6-(2-(1-isopropyl-3,4-dihydro-7-isoquinolinyl)cyclopropyl)-8-((1E)-3-methyl-1-butenyl)-2-naphthalenecarboximidamide], the Ki amounted to 21 nM.
Same read-out and setting: to `CC(C)C1=NCCc2ccc(C3CC3c3cc(Br)c4cc(C(=N)N)ccc4c3)cc21` (stereo not shown) [Example 35, 8-bromo-6-(2-(1-isopropyl-3,4-dihydro-7-isoquinolinyl)cyclopropyl)-2-naphthalenecarboximidamide] belongs 128 nM.
Still for that read-out and setting: to `CC(C)/C=C/c1cc(C2CC2c2ccc3c(c2)C(C(C)C)N(C)CC3)cc2ccc(C(=N)N)cc12` (stereo not shown) [Example 37, 6-(2-(1-isopropyl-2-methyl-1,2,3,4-tetrahydro-7-isoquinolinyl)cyclopropyl)-8-((1E)-3-methyl-1-butenyl)-2-naphthalenecarboximidamide] belongs 10 nM; to `CC(C)/C=C/c1cc(C2CC2c2ccc3c(c2)C(C2CCCCC2)=NCC3)cc2ccc(C(=N)N)cc12` (stereo not shown) [Example 58, 6-(2-(1-cyclohexyl-3,4-dihydro-7-isoquinolinyl)cyclopropyl)-8-((1E)-3-methyl-1-butenyl)-2-naphthalenecarboximidamide], 10 nM; to `CC(=O)N1CCc2ccc(C3CC3c3ccc4cc(C(=N)N)ccc4c3)cc2C1C(C)C` (stereo not shown) [Example 15, 6-(2-(2-acetyl-1-isopropyl-1,2,3,4-tetrahydro-7-isoquinolinyl)cyclopropyl)-2-naphthalenecarboximidamide], 160 nM.
